Source: US11319324B2, “Pyrazolo-pyrrolo-pyrimidine-dione derivatives as P2X3 inhibitors” (Bayer Aktiengesellschaft, priority 2017, dated 2022)

What was measured:
Assay type in all cases: cell-based
[1] = molecular target: T1, human P2X3 receptor (Homo sapiens, UniProt P56373); test: Intracellular calcium measurement, antagonist activity at human P2X3 receptors (hP2X3 1321N1), Fluo8; design: expressed in transfected cells; host or cells: human astrocytoma 1321N1 (1312N1 [sic]); details: column 3); 1321N1 cells, human P2X3, Fluo8, agonist ATP at EC50
T1 sequence (P56373 1-397): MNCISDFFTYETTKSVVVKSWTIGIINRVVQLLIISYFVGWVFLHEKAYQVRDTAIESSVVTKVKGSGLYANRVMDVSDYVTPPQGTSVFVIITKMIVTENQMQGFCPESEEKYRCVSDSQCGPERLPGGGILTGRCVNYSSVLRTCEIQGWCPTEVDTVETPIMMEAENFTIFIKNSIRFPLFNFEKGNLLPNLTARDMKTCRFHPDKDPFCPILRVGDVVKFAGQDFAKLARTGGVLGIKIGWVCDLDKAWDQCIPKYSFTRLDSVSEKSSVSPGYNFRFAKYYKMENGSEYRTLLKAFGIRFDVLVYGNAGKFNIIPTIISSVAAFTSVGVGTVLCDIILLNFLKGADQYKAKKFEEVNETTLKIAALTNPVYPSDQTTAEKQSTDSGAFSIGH
Protocol: 3) And 4) Intracellular Calcium Measurement to Compare Antagonist Activity at Human P2X3 Receptors (hP2X3 1321N1) and at Human P2X2/3 Receptors (hP2X23 1321N1)
The comparison of antagonistic activity at the P2X3 versus the P2X2/3 receptor of the compounds of the invention were performed by use of recombinant cell lines. These cell lines derived originally from the human astrocytoma cell line […] (Macintyre E H, Pontén J, Vatter A E. Acta Pathol Microbiol Scand A. 1972; 80(2):267-83). The cell lines are stably transfected with the human P2X3 receptor forming homotrimeric P2X3 receptors or are co-transfected with P2X2 and P2X3 forming heterotrimeric P2X2/3 receptors. Stimulation of the receptors with the agonist ATP leads to a conformational change of the receptors and influx of extracellular calcium ions through the open ion channel. The cytoplasmatic calcium transient is detected via the calcium sensitive dye Fluo8. The strength of Fluo8 fluorescence signal corresponds to the level of receptor activation. An inhibitor would decrease the signal depending on its potency and concentration. Fluorescence was measured by use of a suitable fluorescence reader.
On the day before the assay, the cells were plated in culture medium (DMEM high glucose, 10% FCS, 1% MEM non-essential amino acids, 4 mM Glutamax) in 384-well poly-D-lysine coated microtiter plates and kept in a cell incubator (96% humidity, 5% v/v CO2, 37° C.). On the day of the assay medium was exchanged by Fluo8 containing buffer and incubated for 60 minutes. Test compounds were added at various concentrations and plates were incubated for 10 minutes. In the fluorescence reader a 3 seconds baseline measurement was performed and the agonist ATP was applied at EC50 concentration of the respective receptor during constant fluorescence measurement for 120 seconds.

[2] = molecular target: T1, human P2X3 receptor; test: Intracellular calcium measurement to assess antagonist activity at human P2X3 receptors (hP2X3 CHO), photina luminescence; design: expressed in transfected cells; host or cells: Chinese hamster ovary (CHO) cells; details: column 2), CHO cells, agonist α,β-methylene-ATP at EC50
Procedure, shortened: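 CHO cells stably expressing human P2X3 and mitochondrial photina, plated the day before at 30 °C, then loaded 3 h at 37 °C in 2 mM Ca-tyrode buffer with 5 μg/ml coelenterazine. Agonist-evoked calcium luminescence read immediately; inhibition seen as signal decrease.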

[3] = molecular target: T2, human P2X2/3 receptors (Homo sapiens, UniProt P56373+Q9UBL9); test: Intracellular calcium measurement, antagonist activity at human P2X2/3 receptors (hP2X23 1321N1), Fluo8; details: for IC50: column 4); 1321N1 cells, human P2X2/3, Fluo8, agonist ATP at EC50; read-out: 4) hP2X2/3 IC50 [nM] (1321N1); for hP2X23/hP2X3* Selectivity (1321N1): ratio of column 4) hP2X2/3 to column 3) hP2X3, 1321N1
T2 construct: expressed in transfected cells; host or cells: human astrocytoma 1321N1 (1312N1 [sic])
T2 sequence (P56373 1-397): T1 sequence (P56373 1-397)
T2 sequence (Q9UBL9 1-471): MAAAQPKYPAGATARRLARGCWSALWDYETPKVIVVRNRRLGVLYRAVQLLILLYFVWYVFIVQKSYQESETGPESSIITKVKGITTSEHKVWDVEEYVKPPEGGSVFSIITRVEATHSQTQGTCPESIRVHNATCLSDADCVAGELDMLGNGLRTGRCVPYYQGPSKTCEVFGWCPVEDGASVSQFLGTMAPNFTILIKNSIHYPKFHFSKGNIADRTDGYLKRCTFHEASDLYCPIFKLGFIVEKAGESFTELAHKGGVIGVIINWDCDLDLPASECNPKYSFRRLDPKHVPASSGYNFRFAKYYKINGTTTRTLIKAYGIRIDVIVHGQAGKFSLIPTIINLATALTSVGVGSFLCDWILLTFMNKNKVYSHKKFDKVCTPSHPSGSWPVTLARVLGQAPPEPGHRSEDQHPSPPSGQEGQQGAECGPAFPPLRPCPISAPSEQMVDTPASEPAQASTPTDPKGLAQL
Procedure, shortened: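 Inhibition of ATP-triggered Ca2+ transients is measured in 1321N1 cells expressing P2X3 homotrimers or P2X2/3 heterotrimers.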

Row | SMILES | IC50 [1] [nM] | IC50 [2] [nM] | IC50 [3] [nM] | hP2X23/hP2X3* Selectivity (1321N1) [3]
1 | CC(C)N1Cc2c(n(CC(=O)Nc3ccc(F)cn3)c3cc(C(=O)NC4CCCC4)nn3c2=O)C1=O [Example 185] | 40 | 22 | 3350 | 84
2 | CC(C)N1Cc2c(n(CC(=O)Nc3ccc(F)cn3)c3cc(C4CCN(C5CCC5)CC4)nn3c2=O)C1=O [Example 252] | 350 | 460 | > 32000 | >91
3 | CCc1cc2n(CC(=O)Nc3ccc(F)cn3)c3c(c(=O)n2n1)CN(CC1CCNC1)C3=O.Cl (stereo not drawn) [Example 238] | 650 | 550 | > 32000 | >49
4 | CC(C)N1Cc2c(n(CC(=O)Nc3ccc(F)cn3)c3cc(C4CCN(C5CCC5)C4)nn3c2=O)C1=O (stereo not drawn) [Example 250] | 118 | 162 | 4300 | 36
5 | COCCN1Cc2c(n(CC(=O)Nc3ccc(F)cn3)c3cc(C4CCOCC4)nn3c2=O)C1=O [Example 97] | 47 | 66 | 9750 | 207
6 | CC(C)N1Cc2c(n(CC(=O)Nc3ccc(F)cn3)c3cc(C4CCNC4)nn3c2=O)C1=O.Cl (racemic) [Example 235, 2-{5,8-dioxo-6-(propan-2-yl)-2-[(±)-pyrrolidin-3-yl]-5,6,7,8-tetrahydro-4H-pyrazolo[1,5-a]pyrrolo[3,4-d]pyrimidin-4-yl}-N-(5-fluoropyridin-2-yl)acetamide hydrochloride (1:1)] | 340 | 155 | > 66000 | >194
7 | CC(C)N1Cc2c(n(CC(=O)Nc3ccc(F)cn3)c3cc(C4CCN(S(C)(=O)=O)C4)nn3c2=O)C1=O (racemic) [Example 270, N-(5-fluoropyridin-2-yl)-2-{2-[(±)-1-(methylsulfonyl)pyrrolidin-3-yl]-5,8-dioxo-6-(propan-2-yl)-5,6,7,8-tetrahydro-4H-pyrazolo[1,5-a]pyrrolo[3,4-d]pyrimidin-4-yl}acetamide] | 57 | 29 | 6650 | 118
8 | CC(C)N1Cc2c(n(CC(=O)Nc3ccc(F)cn3)c3cc(C(=O)Nc4ccccc4F)nn3c2=O)C1=O [Example 200] | 38 | 44 | 3950 | 105
9 | CCc1cc2n(CC(=O)Nc3ccc(F)cn3)c3c(c(=O)n2n1)CN(CCCOC)C3=O [Example 109] | 280 | 133 | > 32000 | >114
10 | CCc1cc2n(CC(=O)Nc3ccc(F)cn3)c3c(c(=O)n2n1)CN(C1CCOCC1)C3=O [Example 94] | 410 | 290 | > 23000 | >56
11 | CCc1cc2n(CC(=O)Nc3ccc(C)cn3)c3c(c(=O)n2n1)CN(C(C)C)C3=O [Example 65] | 207 | 200 | 10500 | 51
12 | COCCNc1cc2n(CC(=O)Nc3ccc(F)cn3)c3c(c(=O)n2n1)CN(C(C)C)C3=O [Example 169] | 120 | 108 | > 20700 | >173
13 | CCc1cc2n(CC(=O)Nc3ccc(F)cn3)c3c(c(=O)n2n1)CN(CCN1CCOCC1)C3=O [Example 95] | 273 | 178 | > 22500 | >82
14 | CC(C)N1Cc2c(n(CC(=O)Nc3ccc(F)cn3)c3cc(NC(=O)COCc4ccccc4)nn3c2=O)C1=O [Example 287, 2-(benzyloxy)-N-[4-{2-[(5-fluoropyridin-2-yl)amino]-2-oxoethyl}-5,8-dioxo-6-(propan-2-yl)-5,6,7,8-tetrahydro-4H-pyrazolo[1,5-a]pyrrolo[3,4-d]pyrimidin-2-yl]acetamide] | 48 | 32 | 1800 | 38

Stronger by IC50 [1], values ahead:

Row | IC50 [1] [nM] | IC50 [2] [nM] | IC50 [3] [nM] | hP2X23/hP2X3* Selectivity (1321N1) [3] | SMILES
15 | 20 | 95 | > 23500 | >1175 | CC(C)N1Cc2c(n(CC(=O)Nc3ccc(F)cn3)c3cc(C4CCOC4)nn3c2=O)C1=O (racemic) [Example 228, 2-{5,8-dioxo-2-[(±)-oxolan-3-yl]-6-(propan-2-yl)-5,6,7,8-tetrahydro-4H-pyrazolo[1,5-a]pyrrolo[3,4-d]pyrimidin-4-yl}-N-(5-fluoropyridin-2-yl)acetamide]
16 | 3 | 13 | 1800 | 581 | Cc1cc(-c2cc3n(CC(=O)Nc4ccc(F)cn4)c4c(c(=O)n3n2)CN(C(C)C)C4=O)c(C)cn1 [Example 159]
17 | 29 | 30 | 11500 | 397 | COC[C@H](C)N1Cc2c(n(CC(=O)Nc3ccc(F)cn3)c3cc(N(C)C)nn3c2=O)C1=O [Example 177]
18 | 7 | 11 | 1140 | 165 | CC(C)N1Cc2c(n(CC(=O)Nc3ccc(F)cn3)c3cc(C4=CCN(C(=O)OC(C)(C)C)C4)nn3c2=O)C1=O [Example 142, tert-butyl 3-[4-{2-[(5-fluoropyridin-2-yl)amino]-2-oxoethyl}-5,8-dioxo-6-(propan-2-yl)-5,6,7,8-tetrahydro-4H-pyrazolo[1,5-a]pyrrolo[3,4-d]pyrimidin-2-yl]-2,5-dihydro-1H-pyrrole-1-carboxylate]
19 | 20 | 52 | 4850 | 243 | COCCN1Cc2c(n(CC(=O)Nc3ccc(F)cn3)c3cc(C4CC4)nn3c2=O)C1=O [Example 100]
20 | 36 | 81 | > 20500 | >569 | CC(C)N1Cc2c(n(CC(=O)Nc3ccc(F)cn3)c3cc(C4CCN(S(=O)(=O)CC(F)(F)F)C4)nn3c2=O)C1=O (stereo not drawn) [Example 271]
21 | 17 | 18 | 5000 | 294 | CCc1cc2n(CC(=O)Nc3ccc(F)cn3)c3c(c(=O)n2n1)CN(Cc1cccnc1)C3=O [Example 107]
22 | 16 | 35 | 9300 | 581 | COC[C@H](C)N1Cc2c(n(CC(=O)Nc3ccc(F)cn3)c3cc(C(=O)N4CCCCC4)nn3c2=O)C1=O [Example 198]
23 | 4 | 8 | 1700 | 447 | Cc1ccc(-c2cc3n(CC(=O)Nc4ccc(F)cn4)c4c(c(=O)n3n2)CN(C(C)C)C4=O)nc1 [Example 69]
24 | 9 | 17 | 2350 | 250 | CC(C)N1Cc2c(n(CC(=O)Nc3ccc(F)cn3)c3cc(NC4CCCC4)nn3c2=O)C1=O [Example 168]
